US9695155B2, “Herbicidal substituted pyrimidinyloxy benzene compounds” (E. I. DU PONT DE NEMOURS AND COMPANY, priority 2013, dated 2017)

What was measured:
[1] = test system: velvetleaf; assay: Test A postemergence; type: in vivo, Abutilon theophrasti
Procedure, shortened: (§1)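 Visual 0–100 rating (100 = complete control) taken about 10 d post-treatment relative to untreated checks. Preemergence: directed soil spray on sown loam/sand pots. Postemergence: seedlings 2–10 cm, 1–2 leaf. Non-phytotoxic solvent formulation with surfactant.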

[2] = test system: pigweed; assay: Test A postemergence; type: in vivo, Amaranthus retroflexus
Procedure, shortened: as §1

[3] = test system: large (Lg) crabgrass; assay: Test A preemergence; type: in vivo, Digitaria sanguinalis; conditions: for Crabgrass, Large plant response rating (0 to 100 scale): 125 g ai/ha
Procedure, shortened: as §1

[4] = test system: velvetleaf; assay: Test A preemergence; type: in vivo, Abutilon theophrasti; conditions: for Velvetleaf plant response rating (0 to 100 scale): 125 g ai/ha
Procedure, shortened: as §1

[5] = test system: large (Lg) crabgrass; assay: Test A postemergence; type: in vivo, Digitaria sanguinalis
Procedure, shortened: as §1

[6] = test system: barnyardgrass; assay: Test B flooded paddy test; type: in vivo, Echinochloa crus-galli; conditions: Flood, 250 g ai/ha; 0 to 100 scale where 0 is no effect and 100 is complete control
Procedure, shortened: (§2)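 Scores from 0 (no effect) to 100 (complete control) are visual comparisons with controls, taken 13 to 15 days after compound was applied into floodwater 3 cm deep around 2-leaf plants.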

[7] = test system: Heteranthera limosa; assay: Test B flooded paddy test; type: in vivo; conditions: Flood, 250 g ai/ha; 0 to 100 scale where 0 is no effect and 100 is complete control
Procedure, shortened: as §2

[8] = test system: giant foxtail; assay: Test A postemergence; type: in vivo, Setaria faberii
Procedure, shortened: as §1

[9] = test system: corn; assay: Test A postemergence; type: in vivo, Zea mays
Procedure, shortened: as §1

[10] = test system: corn; assay: Test A preemergence; type: in vivo, Zea mays; conditions: for Corn plant response rating (0 to 100 scale): 125 g ai/ha
Procedure, shortened: as §1

[11] = test system: morningglory; assay: Test A postemergence; type: in vivo, Ipomoea spp.
Procedure, shortened: as §1

[12] = test system: rice; assay: Test B flooded paddy test; type: in vivo, Oryza sativa; conditions: Flood, 250 g ai/ha; 0 to 100 scale where 0 is no effect and 100 is complete control
Procedure, shortened: as §2

[13] = test system: sedge, umbrella; assay: Test B flooded paddy test; type: in vivo, Cyperus difformis; conditions: Flood, 250 g ai/ha; 0 to 100 scale where 0 is no effect and 100 is complete control
Procedure, shortened: as §2

[14] = test system: barnyardgrass; assay: Test A preemergence; type: in vivo, Echinochloa crus-galli; conditions: for Barnyardgrass plant response rating (0 to 100 scale, 0 is no effect, 100 is complete control): 125 g ai/ha
Procedure, shortened: as §1

[15] = test system: morningglory; assay: Test A preemergence; type: in vivo, Ipomoea spp.; conditions: for Morningglory plant response rating (0 to 100 scale): 125 g ai/ha
Procedure, shortened: as §1

[16] = test system: giant foxtail; assay: Test A preemergence; type: in vivo, Setaria faberii; conditions: for Foxtail, Giant plant response rating (0 to 100 scale): 125 g ai/ha
Procedure, shortened: as §1

[17] = test system: wheat; assay: Test A postemergence; type: in vivo, Triticum aestivum
Procedure, shortened: as §1

[18] = test system: barnyardgrass; assay: Test A postemergence; type: in vivo, Echinochloa crus-galli
Procedure, shortened: as §1

[19] = test system: wheat; assay: Test A preemergence; type: in vivo, Triticum aestivum; conditions: for Wheat plant response rating (0 to 100 scale): 125 g ai/ha
Procedure, shortened: as §1

[20] = test system: pigweed; assay: Test A preemergence; type: in vivo, Amaranthus retroflexus; conditions: for Pigweed plant response rating (0 to 100 scale): 125 g ai/ha
Procedure, shortened: as §1

[21] = 125 g ai/ha, 0 to 100 scale, 0 no effect, 100 complete control
[22] = 500 g ai/ha, 0 to 100 scale where 0 is no effect and 100 is complete control
[23] = 1000 g ai/ha, 0 to 100 scale, 0 no effect, 100 complete control
[24] = 1000 g ai/ha, 0 to 100 scale, 0 no effect, 100 complete control, approx. 10 days

SMILES	Plant response rating, Velvetleaf [1, 21]	Plant response rating, Velvetleaf [1, 22]	Plant response rating, Pigweed [2, 21]	Plant response rating, Pigweed [2, 22]	Crabgrass, Large plant response rating (0 to 100 scale) [3]	Crabgrass, Large plant response rating [3, 22]	Velvetleaf plant response rating (0 to 100 scale) [4]	Velvetleaf plant response rating [4, 22]	Plant response rating, Crabgrass, Large [5, 21]	Plant response rating, Crabgrass, Large [5, 22]	Plant response rating, Barnyardgrass [6]	Plant response rating, Ducksalad [7]	Plant response rating, Foxtail, Giant [8, 21]	Plant response rating, Foxtail, Giant [8, 22]	Plant response rating, Corn [9, 21]	Plant response rating, Corn [9, 22]	Corn plant response rating (0 to 100 scale) [10]	Corn plant response rating [10, 22]	Plant response rating, Rice [12]	Plant response rating, Sedge, Umbrella [13]	other results
CNN=Cc1cccc(Oc2ncc(Cl)cn2)c1-n1cc(Br)cn1 [Compound 289]	10	40	100	100	0	10	0	10	0	20	0	0	0	30	0	10	0	0	0	0	Plant response rating, Morningglory [11, 21]: 20; Plant response rating, Morningglory [11, 22]: 50; Barnyardgrass plant response rating (0 to 100 scale, 0 is no effect, 100 is complete control) [14]: 0; Barnyardgrass plant response rating [14, 22]: 20; Morningglory plant response rating (0 to 100 scale) [15]: 0; Morningglory plant response rating [15, 22]: 0; Foxtail, Giant plant response rating (0 to 100 scale) [16]: 0; Foxtail, Giant plant response rating [16, 22]: 10; Plant response rating, Wheat [17, 21]: 0; Plant response rating, Wheat [17, 22]: 0; Plant response rating, Barnyardgrass [18, 21]: 0; Plant response rating, Barnyardgrass [18, 22]: 20; Wheat plant response rating (0 to 100 scale) [19]: 0; Wheat plant response rating [19, 22]: 0; Pigweed plant response rating (0 to 100 scale) [20]: 20; Pigweed plant response rating [20, 22]: 100
Clc1cnc(Oc2cccc(-c3cccnc3)c2-n2cc(Br)cn2)nc1 [Compound 290]	10	30	10	20	0	10	0	0	0	10	0	0	0	10	0	10	0	0	0	0	Plant response rating, Morningglory [11, 21]: 0; Plant response rating, Morningglory [11, 22]: 10; Barnyardgrass plant response rating (0 to 100 scale, 0 is no effect, 100 is complete control) [14]: 0; Barnyardgrass plant response rating [14, 22]: 0; Morningglory plant response rating (0 to 100 scale) [15]: 0; Morningglory plant response rating [15, 22]: 0; Foxtail, Giant plant response rating (0 to 100 scale) [16]: 0; Foxtail, Giant plant response rating [16, 22]: 10; Plant response rating, Wheat [17, 21]: 0; Plant response rating, Wheat [17, 22]: 0; Plant response rating, Barnyardgrass [18, 21]: 0; Plant response rating, Barnyardgrass [18, 22]: 0; Wheat plant response rating (0 to 100 scale) [19]: 0; Wheat plant response rating [19, 22]: 0; Pigweed plant response rating (0 to 100 scale) [20]: 0; Pigweed plant response rating [20, 22]: 0
CNN=Cc1cccc(Oc2ncc(Cl)cn2)c1-n1cc(Cl)cn1 [Compound 296]	30	30	30	100	0	60	0	10	0	0	0	0	0	0	0	10	0	0	0	0	Plant response rating, Morningglory [11, 21]: 20; Plant response rating, Morningglory [11, 22]: 20; Barnyardgrass plant response rating (0 to 100 scale, 0 is no effect, 100 is complete control) [14]: 0; Barnyardgrass plant response rating [14, 22]: 10; Morningglory plant response rating (0 to 100 scale) [15]: 0; Morningglory plant response rating [15, 22]: 0; Foxtail, Giant plant response rating (0 to 100 scale) [16]: 0; Foxtail, Giant plant response rating [16, 22]: 10; Plant response rating, Wheat [17, 21]: 0; Plant response rating, Wheat [17, 22]: 20; Plant response rating, Barnyardgrass [18, 21]: 0; Plant response rating, Barnyardgrass [18, 22]: 0; Wheat plant response rating (0 to 100 scale) [19]: 0; Wheat plant response rating [19, 22]: 0; Pigweed plant response rating (0 to 100 scale) [20]: 0; Pigweed plant response rating [20, 22]: 90
C[Si](C)(C)c1cn(-c2ccccc2Oc2ncc(Cl)cn2)nn1 [Compound 297]	–	–	–	–	–	–	–	–	–	–	0	0	–	–	–	–	–	–	0	0	Plant response rating, Velvetleaf [1, 23]: 60; Plant response rating, Pigweed [2, 23]: 70; Crabgrass, Large plant response rating [3, 24]: 90; Velvetleaf plant response rating [4, 24]: 50; Plant response rating, Crabgrass, Large [5, 23]: 30; Plant response rating, Foxtail, Giant [8, 23]: 10; Plant response rating, Corn [9, 23]: 0; Corn plant response rating [10, 24]: 0; Plant response rating, Morningglory [11, 23]: 30; Barnyardgrass plant response rating [14, 24]: 10; Morningglory plant response rating [15, 24]: 0; Foxtail, Giant plant response rating [16, 24]: 80; Plant response rating, Wheat [17, 23]: 0; Plant response rating, Barnyardgrass [18, 23]: 10; Wheat plant response rating [19, 24]: 0; Pigweed plant response rating [20, 24]: 70
CCOC(=O)c1cnn(-c2c(C#N)cccc2Oc2ncc(Cl)cn2)c1 [Compound 301]	0	0	0	30	0	0	0	0	0	0	0	0	0	0	0	0	0	0	0	0	Plant response rating, Morningglory [11, 21]: 0; Plant response rating, Morningglory [11, 22]: 0; Barnyardgrass plant response rating (0 to 100 scale, 0 is no effect, 100 is complete control) [14]: 0; Barnyardgrass plant response rating [14, 22]: 0; Morningglory plant response rating (0 to 100 scale) [15]: 0; Morningglory plant response rating [15, 22]: 0; Foxtail, Giant plant response rating (0 to 100 scale) [16]: 0; Foxtail, Giant plant response rating [16, 22]: 0; Plant response rating, Wheat [17, 21]: 0; Plant response rating, Wheat [17, 22]: 0; Plant response rating, Barnyardgrass [18, 21]: 0; Plant response rating, Barnyardgrass [18, 22]: 0; Wheat plant response rating (0 to 100 scale) [19]: 0; Wheat plant response rating [19, 22]: 0; Pigweed plant response rating (0 to 100 scale) [20]: 0; Pigweed plant response rating [20, 22]: 0
